Data from patent US5073539A, “Transdermal administration of zwitterionic drugs” (Ciba-Geigy Corporation, priority 1990, dated 1991).
≈ marks a conversion by molar mass, not a printed value. Where a name gives a salt, the structure may show the parent alone. Read-outs that look alike come from different tables or passages of the source.

Experiments:
[1] = Solubility in water at 25 deg. C.; assay type: physicochemical; conditions: average of triplicate
From the text: (§1) The solubility in water is given as a model of polar solvents, while the octanol and chloroform are given as models for skin lipids.

[2] = Solubility in ethanol at 25 deg. C.; assay type: physicochemical; conditions: average of triplicate
[3] = Solubility in octanol at 25 deg. C. (model of skin lipids); assay type: physicochemical; conditions: average of triplicate
From the text: as §1

[4] = Solubility in chloroform at 25 deg. C. (model of skin lipids); assay type: physicochemical
From the text: (§2) In the examples, the solubilities of free zwitterion and enhanced solubilities of various salts thereof are reported in various degrees in the following solvents: water, ethanol, octanol, chloroform and human stratum corneum. Permeation rates are also shown for these zwitterionic compounds and enhanced fluxes of the salts thereof through materials including polyurethane. While such materials are impractical for transdermal devices for free zwitterions, these materials are practical for the transdermal delivery of salts of zwitterions. The solubility in water is given as a model of polar solvents, while the octanol and chloroform are given as models for skin lipids. The critical factor for inclusion of a salt within the invention is that relative to its non salt zwitterion parent compound, the salt form of the invention has a greater solubility in both polar and lipid skin models.
(§3) Average of values measured in triplicate.

[5] = Permeation rate through polyurethane; assay type: physicochemical
From the text: as §2, §3

[6] = Solubility in human stratum corneum; assay type: physicochemical; conditions: average of triplicate
From the text: as §2, §3

[7] = Permeation rate through human epidermis; assay type: in vitro ADME
From the text: as §2, §3

[8] = at 25 deg. C., average of triplicate

| Compound | Solubility in water [1] [mg/mL] | Solubility in ethanol [2] [mg/mL] | Solubility in octanol [3] [mg/mL] | Solubility in chloroform [4, 8] [µg/mL] | Permeation rate through polyurethane ([5]; average of triplicate) [ug/cm 2/hr] | R.E. (relative enhancement) of permeation rate through polyurethane ([5]; relative to free zwitterion) | Permeation rate through polyurethane [5] [ug/cm 2/hr] | R.E. (relative enhancement) of permeation rate through polyurethane [5] | also measured |
| --- | --- | --- | --- | --- | --- | --- | --- | --- | --- |
| NCC(CC(=O)O)c1ccc(Cl)cc1 (stereo not drawn) [Bac. hydrochloride] | 244.6225 | 37.4989 | 0.3243 | 5.34 | 273.7 | 51.45 | – | – | Solubility in human stratum corneum [6]: 0.21469 mg/mL |
| NCC(CC(=O)O)c1ccc(Cl)cc1 (stereo not drawn) [Bac. hydrobromide] | 351.9468 | 129.5697 | 0.47705 | 13.7 | 738.9 | 138.89 | – | – | Solubility in human stratum corneum [6]: 0.2922 mg/mL; Permeation rate through human epidermis ([7]; average of triplicate): 25.49 ug/cm 2/hr; R.E. (relative enhancement) of permeation rate through human epidermis ([7]; relative to free zwitterion): 216.02 |
| NCC(CC(=O)O)c1ccc(Cl)cc1 (stereo not drawn) [Bac. lithium salt] | 21.7191 | 57.8373 | – | 6.93 | 128.3 | 24.12 | – | – | – |
| NCC(CC(=O)O)c1ccc(Cl)cc1 (stereo not drawn) [Bac. methane sulfonate, baclofen methane sulfonate] | 8.8269 | 170.84 | – | 0.087 | 287.9 | 54.12 | – | – | solubility in chloroform versus free zwitterion ([4]; in words, exception to salt being more soluble): one exception |
| NCCCC[C@H](N[C@H]1CCc2ccccc2N(CC(=O)O)C1=O)C(=O)O [CGS 16617. dihydrobromide] | 1423 | 45.0269 | 0.5067 | – | – | – | 65.31 | 121.39 | – |
| NCC(CC(=O)O)c1ccc(Cl)cc1 (stereo not drawn) [Baclofen (Bac), Baclofen, reference compound] | 6.8287 (≈ 32 mM) | 1.1441 (≈ 5.35 mM) | 0.0222 (≈ 0.104 mM) | 0.22 (≈ 0.00103 mM) | 5.32 | 1.00 | – | – | Solubility in human stratum corneum [6]: 0.00311 mg/mL (≈ 0.0146 mM); Permeation rate through human epidermis ([7]; average of triplicate): 0.118 ug/cm 2/hr; R.E. (relative enhancement) of permeation rate through human epidermis ([7]; relative to free zwitterion): 1.00 |
| NCC(CC(=O)O)c1ccc(Cl)cc1 (stereo not drawn) [Bac. hydrofluoride] | 1.3962 (≈ 6.53 mM) | 1.79088 (≈ 8.38 mM) | – | 0.104 (≈ 0.000487 mM) | 3.45 | 0.65 | – | – | Solubility in human stratum corneum [6]: 0.02215 mg/mL (≈ 0.104 mM) |
| NCC(CC(=O)O)c1ccc(Cl)cc1 (stereo not drawn) [Bac. propane sulfonate] | 24.4257 | 107.317 | – | 8.74 | 233.9 | 43.97 | – | – | – |
| NCC(CC(=O)O)c1ccc(Cl)cc1 (stereo not drawn) [Bac. maleate] | 1.2923 | – | – | 0.026 | 19.13 | 3.59 | – | – | – |
| NCCCC[C@H](N[C@H]1CCc2ccccc2N(CC(=O)O)C1=O)C(=O)O [CGS 16617. monomaleate] | 623.9 | 0.24882 | 0.01396 | – | – | – | 3.47 | 6.45 | – |
| O=C(O)CN1C(=O)[C@@H](N[C@@H](CCc2ccccc2)C(=O)O)CCc2ccccc21 [CGS 14831. dilithium salt] | – | 27.97561 | – | – | – | – | 47.76 | 153.57 | Permeation rate through human epidermis [7]: 8.95 ug/cm 2/hr; R.E. (relative enhancement) of permeation rate through human epidermis [7]: 63.52 |
| NC(Cc1ccccc1)C(=O)O (stereo not drawn) [Phe. hydrochloride] | 959.6908 | 107.1459 | 40.2318 | 58.26 | 1516.23 | 789.70 | – | – | Permeation rate through human epidermis ([7]; average of triplicate): 77.53 ug/cm 2/hr; R.E. (relative enhancement) of permeation rate through human epidermis ([7]; relative to free zwitterion): 76.01 |
| NCC(CC(=O)O)c1ccc(Cl)cc1 (stereo not drawn) [Bac. pentane sulfonate] | – | 61.6503 | 0.5764 | 37.4 | 220.2 | 41.30 | – | – | – |
| NCCCC[C@H](N[C@H]1CCc2ccccc2N(CC(=O)O)C1=O)C(=O)O [CGS 16617. dihydrochloride] | 1127.8 | 1.89075 | 0.0878 | – | – | – | 13.34 | 24.80 | – |
| O=C(O)CN1C(=O)[C@@H](N[C@@H](CCc2ccccc2)C(=O)O)CCc2ccccc21 [Benazeprilat (CGS14831), Benazeprilat, reference compound] | – | 0.12089 (≈ 0.305 mM) | – | – | – | – | 0.311 | 1.00 | Permeation rate through human epidermis [7]: 0.1409 ug/cm 2/hr; R.E. (relative enhancement) of permeation rate through human epidermis [7]: 1.00 |
| NCCCC[C@H](N[C@H]1CCc2ccccc2N(CC(=O)O)C1=O)C(=O)O [CGS 16617, reference compound] | 491.5 (≈ 1350 mM) | 0.1907 (≈ 0.525 mM) | 0.02336 (≈ 0.0643 mM) | – | – | – | 0.538 | 1.00 | – |
| NCC(CC(=O)O)c1ccc(Cl)cc1 (stereo not drawn) [Bac. sodium salt] | 21.3797 | 529.056 | – | 3.47 | 605.3 | 113.78 | – | – | – |
| O=C(O)CN1C(=O)[C@@H](N[C@@H](CCc2ccccc2)C(=O)O)CCc2ccccc21 [CGS 14831. dipotassium salt] | – | 34.19351 | – | – | – | – | 75.01 | 241.19 | Permeation rate through human epidermis [7]: 20.56 ug/cm 2/hr; R.E. (relative enhancement) of permeation rate through human epidermis [7]: 145.92 |
| N[C@@H](Cc1ccccc1)C(=O)O [Phenylalanine (Phe), Phenylalanine, reference compound] | – | – | – | – | 1.92 | 1.00 | – | – | solubility ([1]; water): 25.3 mg/mL (≈ 153 mM); solubility ([2]; ethanol, organic solvent or mixture): 0.234 mg/mL (≈ 1.42 mM); solubility ([3]; octanol, organic solvent or mixture): 0.0123 mg/mL (≈ 0.0745 mM); solubility ([4]; chloroform, organic solvent or mixture, at 25 deg. C., average of triplicate): 0.00021 mg/mL (≈ 0.00127 mM); Permeation rate through human epidermis ([7]; average of triplicate): 1.02 ug/cm 2/hr; R.E. (relative enhancement) of permeation rate through human epidermis ([7]; relative to free zwitterion): 1.00 |
| NCC(CC(=O)O)c1ccc(Cl)cc1 (stereo not drawn) [Bac. fumarate] | 1.1875 | – | – | 0.627 | 11.4 | 2.14 | – | – | – |
| NCC(CC(=O)O)c1ccc(Cl)cc1 (stereo not drawn) [Bac. ethane sulfonate] | 38.8898 | 237.181 | – | 11.17 | 211.9 | 39.83 | – | – | – |
| NCC(CC(=O)O)c1ccc(Cl)cc1 (stereo not drawn) [Bac. potassium salt] | – | – | – | – | 587.8 | 110.49 | – | – | – |
